The series can be described thus: Plasma profile of CBD after topical application in rats. The format is in vivo, Sprague Dawley Rats. On the procedure: 12 Female Sprague Dawley Rats (150-200 g) were purchased from Charles River Laboratories (Wilmington, MA). Rats were allowed to acclimatise for one week prior to commencement of the study.
At day 0, rats were anaesthetised using 3% isoflurane via inhalation. The skin on the dorsal side of the rats was shaved and a circular area of approximately 18.09 cm^2 was marked onto the surface of the skin. Twice daily, cream was applied to the dorsal surface of the skin using a 1 ml syringe that was prefilled with the composition described in Example 1 at a dose of 15 mg/kg of cannabidiol (CBD). Following the application of the cream and in order to prevent the cream from being removed, dermal application jackets were applied to each of the rats. These were maintained on the animals for the duration of the study (i.e. 7 days). Every 24 hours, blood was collected by puncturing the saphenous vein with a 20 G needle. At each time point, approximately 200 μL of blood was collected into Microvette™ 200 ZGel collection tubes (Sarstedt). Blood samples were centrifuged at 1.5×104 RPM for 5 mins. Following this, plasma was isolated and stored at −80° C. until the end of the study when all samples were analysed simultaneously. […]
Plasma (20 μL) was added to a 1:1 (v/v) solution of acetonitrile:ethyl acetate at a ratio of 1:10 (plasma:organic solvent). […] The samples were reconstituted with LC-MS grade methanol prior to analysed by mass spectrometry.
LC analyses were performed on an Agilent 1260 LC infinity system consisting of a binary pump, a thermostated autosampler and a thermostated column compartment (Agilent, Waldbronn, Germany). Samples were analyzed on an Agilent Poroshell 120 C18 column (150×2.1 mm; 1.9 μm particle size) (Agilent, Waldbronn, Germany). […]
Tandem mass spectrometry was performed using a TSQ Endura™ Triple Quadrupole Mass Spectrometer (Thermo Fisher Scientific, Waltham, MA) operating in electrospray ionization (ESI). Xcalibur software (Thermo Fisher Scientific) was used for instrument control, data acquisition, qualitative and quantitative data analyses. […]

For the compound `C=C(C)[C@@H]1CCC(C)=C[C@H]1c1c(O)cc(CCCCC)cc1O` [CBD, cannabidiol], the “Time of peak plasma concentration” value (topical composition of Example 1, 15 mg/kg CBD twice daily for 7 days, female rats) was found to be 96 h. The “Peak plasma concentration of CBD” value (topical composition of Example 1, 15 mg/kg CBD twice daily for 7 days, female rats, n=12) was determined as 21.08 ± 3.54 ng/mL. The “Plasma concentration of CBD by 168 h” value (topical composition of Example 1, 15 mg/kg twice daily, LOQ of LC-MS method 5 ng/ml) is given as “below the LOQ”.

The values are drawn from US20240299422A1, “Topical Cannabinoid Compositions and Methods for Treating Skin Diseases” (Avicanna Inc., priority 2021, published 2024).
